Reference: patent EP4722207A1, “OXOISOINDOLINYL-SUBSTITUTED TETRAHYDROPYRIMIDINEDIONE DERIVATIVE AND USE THEREOF” (Gluetacs Therapeutics (Shanghai) Co., Ltd., priority 2023, dated 2024)

Legend:
WEE1 = target: T1, WEE1 (Homo sapiens, UniProt P30291+Q96SW2); assay: Western-blot assay, substrate protein degradation in hPBMCs: WEE1; assay type: cell-based; conditions: compounds at 50 nM and 500 nM, 24 hours
T1 construct: effects of the compounds of the present disclosure on the expression of target proteins in cells; endogenous in cells; host or cells: human PBMCs (hPBMCs)
T1 sequence (P30291 whole entry): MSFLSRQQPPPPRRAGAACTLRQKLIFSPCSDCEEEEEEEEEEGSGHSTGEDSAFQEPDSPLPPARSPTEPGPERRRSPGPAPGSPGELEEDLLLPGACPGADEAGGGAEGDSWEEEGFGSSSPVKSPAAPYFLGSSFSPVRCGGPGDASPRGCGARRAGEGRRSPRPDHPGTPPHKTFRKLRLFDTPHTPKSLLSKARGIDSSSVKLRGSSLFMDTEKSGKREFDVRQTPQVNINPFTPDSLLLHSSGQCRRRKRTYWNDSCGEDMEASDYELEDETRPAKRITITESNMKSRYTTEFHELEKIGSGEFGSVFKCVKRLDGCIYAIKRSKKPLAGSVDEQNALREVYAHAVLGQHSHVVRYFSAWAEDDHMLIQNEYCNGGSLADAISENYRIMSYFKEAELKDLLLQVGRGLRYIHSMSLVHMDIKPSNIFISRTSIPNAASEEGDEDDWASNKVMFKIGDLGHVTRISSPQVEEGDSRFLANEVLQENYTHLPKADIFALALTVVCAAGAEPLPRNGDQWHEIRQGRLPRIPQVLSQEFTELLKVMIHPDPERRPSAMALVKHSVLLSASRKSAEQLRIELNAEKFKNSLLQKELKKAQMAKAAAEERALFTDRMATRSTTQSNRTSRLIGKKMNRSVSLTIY
T1 sequence (Q96SW2 whole entry): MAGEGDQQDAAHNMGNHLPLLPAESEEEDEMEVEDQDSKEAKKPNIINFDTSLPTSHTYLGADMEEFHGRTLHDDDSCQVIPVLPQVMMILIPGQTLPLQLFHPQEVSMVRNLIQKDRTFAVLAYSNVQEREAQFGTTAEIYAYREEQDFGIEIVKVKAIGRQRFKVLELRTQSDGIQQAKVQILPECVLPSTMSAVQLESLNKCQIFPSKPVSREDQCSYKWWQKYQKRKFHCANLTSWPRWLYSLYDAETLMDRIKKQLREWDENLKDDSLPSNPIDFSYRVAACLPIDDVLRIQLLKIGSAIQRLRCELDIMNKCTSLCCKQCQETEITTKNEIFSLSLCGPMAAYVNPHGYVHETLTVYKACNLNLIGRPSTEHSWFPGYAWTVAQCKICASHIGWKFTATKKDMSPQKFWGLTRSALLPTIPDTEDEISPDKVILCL
T1 sequence (Q16531 whole entry partner): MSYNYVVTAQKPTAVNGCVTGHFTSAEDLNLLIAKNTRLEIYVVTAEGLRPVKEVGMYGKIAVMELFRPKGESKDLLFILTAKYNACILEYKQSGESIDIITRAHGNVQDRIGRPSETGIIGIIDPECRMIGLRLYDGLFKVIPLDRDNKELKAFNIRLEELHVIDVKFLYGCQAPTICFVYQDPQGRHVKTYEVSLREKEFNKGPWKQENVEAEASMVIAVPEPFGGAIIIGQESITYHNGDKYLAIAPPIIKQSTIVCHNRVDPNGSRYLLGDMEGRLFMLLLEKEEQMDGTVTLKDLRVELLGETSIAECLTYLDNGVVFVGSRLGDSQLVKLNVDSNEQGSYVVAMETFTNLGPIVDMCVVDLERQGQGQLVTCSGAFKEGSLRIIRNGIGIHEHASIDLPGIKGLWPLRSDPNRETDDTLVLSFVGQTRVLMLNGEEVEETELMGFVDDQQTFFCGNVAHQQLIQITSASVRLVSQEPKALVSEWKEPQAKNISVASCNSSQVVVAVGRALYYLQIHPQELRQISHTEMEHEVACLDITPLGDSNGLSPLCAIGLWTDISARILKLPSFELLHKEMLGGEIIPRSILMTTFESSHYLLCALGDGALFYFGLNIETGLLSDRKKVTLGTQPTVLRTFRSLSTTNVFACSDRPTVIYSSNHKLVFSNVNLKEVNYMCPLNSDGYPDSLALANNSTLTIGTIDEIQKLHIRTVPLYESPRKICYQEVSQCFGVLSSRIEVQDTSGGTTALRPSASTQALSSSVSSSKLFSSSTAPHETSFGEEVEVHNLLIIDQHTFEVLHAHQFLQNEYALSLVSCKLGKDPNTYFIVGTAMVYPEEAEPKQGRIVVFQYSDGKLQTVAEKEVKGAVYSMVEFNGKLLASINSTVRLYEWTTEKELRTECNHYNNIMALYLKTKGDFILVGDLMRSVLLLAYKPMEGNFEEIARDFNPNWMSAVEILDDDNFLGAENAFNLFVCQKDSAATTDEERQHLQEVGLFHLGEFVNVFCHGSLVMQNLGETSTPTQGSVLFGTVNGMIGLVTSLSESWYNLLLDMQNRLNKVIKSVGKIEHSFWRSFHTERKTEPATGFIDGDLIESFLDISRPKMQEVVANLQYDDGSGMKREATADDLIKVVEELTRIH

IKZF1 = target: T2, IKZF1 (Homo sapiens, UniProt Q13422+Q96SW2); assay: Western-blot assay, substrate protein degradation in hPBMCs: IKZF1; assay type: cell-based; conditions: compounds at 50 nM and 500 nM, 24 hours
T2 construct: effects of the compounds of the present disclosure on the expression of target proteins in cells; endogenous in cells; host or cells: human PBMCs (hPBMCs)
T2 sequence (Q13422 whole entry): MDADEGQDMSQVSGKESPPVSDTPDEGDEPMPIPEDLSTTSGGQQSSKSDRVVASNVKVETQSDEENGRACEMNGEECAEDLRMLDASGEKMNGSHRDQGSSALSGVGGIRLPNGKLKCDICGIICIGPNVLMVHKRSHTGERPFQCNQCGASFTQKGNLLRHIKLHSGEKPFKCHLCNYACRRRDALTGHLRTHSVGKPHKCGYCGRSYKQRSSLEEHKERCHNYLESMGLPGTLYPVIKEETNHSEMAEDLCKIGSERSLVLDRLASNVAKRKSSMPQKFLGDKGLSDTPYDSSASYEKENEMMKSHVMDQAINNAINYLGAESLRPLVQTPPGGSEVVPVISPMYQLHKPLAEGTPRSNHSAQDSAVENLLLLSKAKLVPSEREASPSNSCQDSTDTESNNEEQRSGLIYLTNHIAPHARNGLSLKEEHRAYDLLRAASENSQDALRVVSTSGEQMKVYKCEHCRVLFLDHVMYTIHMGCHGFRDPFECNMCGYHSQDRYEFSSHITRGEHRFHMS
T2 sequence (Q96SW2 whole entry): as the sequence (Q96SW2 whole entry) above
T2 sequence (Q16531 whole entry partner): as the sequence (Q16531 whole entry partner) above

IKZF2 = target: T3, IKZF2 (Homo sapiens, UniProt Q96SW2+Q9UKS7); assay: Western-blot assay, substrate protein degradation in hPBMCs: IKZF2; assay type: cell-based; conditions: compounds at 50 nM and 500 nM, 24 hours
T3 construct: effects of the compounds of the present disclosure on the expression of target proteins in cells; endogenous in cells; host or cells: human PBMCs (hPBMCs)

IKZF3 = target: T4, IKZF3 (Homo sapiens, UniProt Q96SW2+Q9UKT9); assay: Western-blot assay, substrate protein degradation in hPBMCs: IKZF3; assay type: cell-based; conditions: compounds at 50 nM and 500 nM, 24 hours
T4 construct: effects of the compounds of the present disclosure on the expression of target proteins in cells; endogenous in cells; host or cells: human PBMCs (hPBMCs)
T4 sequence (Q9UKT9 whole entry): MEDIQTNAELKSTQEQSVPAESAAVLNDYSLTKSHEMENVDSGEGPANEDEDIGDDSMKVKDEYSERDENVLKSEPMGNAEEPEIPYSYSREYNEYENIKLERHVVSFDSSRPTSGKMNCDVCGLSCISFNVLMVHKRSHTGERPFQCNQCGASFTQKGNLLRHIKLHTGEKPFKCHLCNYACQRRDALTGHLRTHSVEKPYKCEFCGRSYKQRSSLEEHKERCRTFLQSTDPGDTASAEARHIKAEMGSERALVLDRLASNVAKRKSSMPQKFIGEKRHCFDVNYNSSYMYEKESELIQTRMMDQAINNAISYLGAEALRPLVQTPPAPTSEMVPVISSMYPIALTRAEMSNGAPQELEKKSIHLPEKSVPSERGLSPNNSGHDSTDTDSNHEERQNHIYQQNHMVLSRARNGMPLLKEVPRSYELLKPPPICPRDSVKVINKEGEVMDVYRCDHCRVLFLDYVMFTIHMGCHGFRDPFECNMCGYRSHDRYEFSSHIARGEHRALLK
T4 sequence (Q96SW2 whole entry): as the sequence (Q96SW2 whole entry) above
T4 sequence (Q16531 whole entry partner): as the sequence (Q16531 whole entry partner) above

CK1α = target: T5, CK1α (Homo sapiens, UniProt P48729+Q96SW2); assay: Western-blot assay, substrate protein degradation in hPBMCs: CK1α; assay type: cell-based; conditions: compounds at 50 nM and 500 nM, 24 hours
T5 construct: effects of the compounds of the present disclosure on the expression of target proteins in cells; endogenous in cells; host or cells: human PBMCs (hPBMCs)
T5 sequence (P48729 whole entry): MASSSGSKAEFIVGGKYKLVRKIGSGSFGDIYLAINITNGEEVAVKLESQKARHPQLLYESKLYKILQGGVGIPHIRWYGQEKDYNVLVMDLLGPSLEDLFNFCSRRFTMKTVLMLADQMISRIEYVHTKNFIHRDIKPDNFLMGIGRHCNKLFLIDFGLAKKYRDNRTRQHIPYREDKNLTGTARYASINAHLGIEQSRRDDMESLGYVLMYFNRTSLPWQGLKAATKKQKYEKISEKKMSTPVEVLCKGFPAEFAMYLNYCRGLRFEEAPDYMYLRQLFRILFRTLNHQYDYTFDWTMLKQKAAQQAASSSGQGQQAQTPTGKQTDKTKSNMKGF
T5 sequence (Q96SW2 whole entry): as the sequence (Q96SW2 whole entry) above
T5 sequence (Q16531 whole entry partner): as the sequence (Q16531 whole entry partner) above

GSPT1 = target: T6, GSPT1 (Homo sapiens, UniProt P15170+Q96SW2); assay: Western-blot assay, substrate protein degradation in hPBMCs: GSPT1; assay type: cell-based; conditions: compounds at 50 nM and 500 nM, 24 hours
T6 construct: effects of the compounds of the present disclosure on the expression of target proteins in cells; endogenous in cells; host or cells: human PBMCs (hPBMCs)
T6 sequence (P15170 whole entry): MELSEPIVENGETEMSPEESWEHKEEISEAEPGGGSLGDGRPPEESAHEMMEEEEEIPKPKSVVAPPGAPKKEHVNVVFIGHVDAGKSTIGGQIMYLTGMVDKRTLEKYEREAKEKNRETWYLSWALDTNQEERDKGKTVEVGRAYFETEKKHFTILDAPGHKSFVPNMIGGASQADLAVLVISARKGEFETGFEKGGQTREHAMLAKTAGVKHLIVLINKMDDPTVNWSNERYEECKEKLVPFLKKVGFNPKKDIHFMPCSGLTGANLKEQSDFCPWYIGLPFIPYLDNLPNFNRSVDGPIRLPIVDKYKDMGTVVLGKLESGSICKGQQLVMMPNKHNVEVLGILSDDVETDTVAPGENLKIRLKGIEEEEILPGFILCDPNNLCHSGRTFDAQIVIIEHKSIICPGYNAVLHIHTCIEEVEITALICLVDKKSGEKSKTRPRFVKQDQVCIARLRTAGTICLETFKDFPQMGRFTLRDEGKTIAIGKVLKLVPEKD
T6 sequence (Q96SW2 whole entry): as the sequence (Q96SW2 whole entry) above
T6 sequence (Q16531 whole entry partner): as the sequence (Q16531 whole entry partner) above

MM.1S = assay: Cell viability assay (CellTiter-Meiluncell Luminescent), tumor cell proliferation, MM.1S; conditions: Homo sapiens, MM1.S, 96 h; for IC50: read-out: inhibitory activity (IC50, nM) against tumor cells proliferation, MM.1S
MGC803 = assay: Cell viability assay (CellTiter-Meiluncell Luminescent), tumor cell proliferation, MGC803; conditions: Homo sapiens, MGC-803, 96 h, read-out: inhibitory activity (IC50, nM) against tumor cells proliferation, MGC803
Experimental: (§1) On the following day, the test compounds of the present disclosure were subjected to serial dilution. […] Subsequently, 0.5 µL of the test compound dilution was transferred into the 96-well plate containing the cells, with each well containing 100 µL of cell culture medium. […] Into the 96-well plate, the diluted test compounds and corresponding detection reagents were added, resulting in final test compound concentrations of 500 nM and 10 nM, respectively.
(§2) After the cells were treated with the compounds of the present disclosure for a specified period, the cell viability assay reagent was added to the culture medium according to the kit's instructions to determine cell viability. […] All controls were treated using the same procedure as the compounds of the present disclosure. The growth inhibition curves for the compounds of the present disclosure were plotted using Prism GraphPad software, and the IC50 values were calculated therefrom.

Jurkat = assay: Cell viability assay (CellTiter-Meiluncell Luminescent), tumor cell proliferation, Jurkat; conditions: Homo sapiens, 96 h, read-out: inhibitory activity (IC50, nM) against tumor cells proliferation, Jurkat
Experimental: as §1, §2

[1] = target: T7, human Cereblon WT GST-tagged protein (Homo sapiens, UniProt Q96SW2); assay: CRBN-binding affinity, CEREBLON BINDING kit (HTRF)
T7 construct: purchased CISBIO 64BDCRBNPEH
T7 sequence (Q96SW2 whole entry): as the sequence (Q96SW2 whole entry) above
Source text: The CEREBLON BINDING kits (specification: 10,000 tests; product number: Catalog # 64BDCRBNPEH; CISBIO company) was used to determine the CRBN binding ability of the compounds to be tested through a HTRF method (homogeneous time-resolved fluorescence). The specific methods are as follows: • 1. […] Specifically, diluent #9 (1X) solution was used as the diluent, and multiple concentration gradients were set. […] Into the 96-well plate, the diluted test compounds and corresponding detection reagents were added, resulting in final test compound concentrations of 2 µM and 0.5 µM, respectively. […] Then, 2.5 µL of human Cereblon WT GST-tagged protein solution was added to each well. Finally, 5 µL of the thoroughly mixed Thalidomide-Re reagent and GST Eu antibody working solution were added to each of the aforementioned wells. […] The blank control wells were sequentially added with 2.5 µL of diluent #9 (1X) solution, 2.5 µL of binding buffer, and 5 µL of thoroughly mixed Thalidomide-Re reagent and GST Eu antibody working solution. • 4. […] OD 620 nm control is the absorbance value of the blank control well at an emission wavelength of 620 nm. […] OD 620 nm Std0 is the absorbance value of the solvent control well at an emission wavelength of 620 nm.

H2228 = assay: Cell viability assay (CellTiter-Meiluncell Luminescent), tumor cell proliferation, H2228; conditions: Homo sapiens, NCI-H2228, 96 h
MV-4-11 = assay: Cell viability assay (CellTiter-Meiluncell Luminescent), tumor cell proliferation, MV-4-11; conditions: Homo sapiens, MV4-11, 96 h
MDA-MB-231 = assay: Cell viability assay (CellTiter-Meiluncell Luminescent), tumor cell proliferation, MDA-MB-231; conditions: Homo sapiens, MDA-MB-231, 96 h
[2] = read-out: Inhibition Rate at 10 nM (%)
[3] = read-out: Inhibition Rate at 500 nM (%)

inhibition at 0.5 µM ([1]; 0.5 µM, read-out: Inhibition Rate at 0.5 µM (%)) | inhibition at 2 µM ([1]; 2 µM, read-out: Inhibition Rate at 2 µM (%)) | SMILES | WEE1 substrate protein remaining % (WEE1) | IKZF1 substrate protein remaining % (IKZF1) | IKZF2 substrate protein remaining % (IKZF2) | IKZF3 substrate protein remaining % (IKZF3) | CK1α substrate protein remaining % (CK1α) | GSPT1 substrate protein remaining % (GSPT1) | IC50 (MM.1S) | IC50 (MGC803) | IC50 (Jurkat) | inhibition at 0.01 µM (MM.1S; [2]) | inhibition at 0.5 µM (MM.1S; [3]) | inhibition at 0.01 µM (H2228; [2]) | inhibition at 0.5 µM (H2228; [3]) | inhibition at 0.01 µM (MV-4-11; [2]) | inhibition at 0.5 µM (MV-4-11; [3]) | inhibition at 0.01 µM (MDA-MB-231; [2]) | inhibition at 0.5 µM (MDA-MB-231; [3])
– | – | O=C1CCN(N2Cc3cc(CN4CCN(c5cccc(Cl)c5Cl)CC4)ccc3C2=O)C(=O)N1 [GT-04853, 1-(5-((4-(2,3-dichlorophenyl)piperazin-1-yl)methyl)-1-oxoisoindolin-2-yl)dihydropyrimidine-2,4(1H,3H)-dione] | A ("A" is defined as 0% ≤ substrate protein remaining % ≤ 80%) | A ("A" is defined as 0% ≤ substrate protein remaining % ≤ 80%) | A ("A" is defined as 0% ≤ substrate protein remaining % ≤ 80%) | B ("B" is defined as 80%< substrate protein remaining %≤ 100%) | B ("B" is defined as 80%< substrate protein remaining %≤ 100%) | A ("A" is defined as 0% ≤ substrate protein remaining % ≤ 80%) | 100 to 300 nM | 500 to 1000 nM | – | – | – | – | – | – | – | – | –
– | – | O=C1CCN(N2Cc3cc(CN4CCN(c5cccc6sccc56)CC4)ccc3C2=O)C(=O)N1 [GT-04866, 1-(5-((4-(benzo[b]thiophen-4-yl)piperazin-1-yl)methyl)-1-oxoisoindolin-2-yl)dihydropyrimidine-2,4(1H,3H)-dione] | A ("A" is defined as 0% ≤ substrate protein remaining % ≤ 80%) | A ("A" is defined as 0% ≤ substrate protein remaining % ≤ 80%) | B ("B" is defined as 80%< substrate protein remaining %≤ 100%) | B ("B" is defined as 80%< substrate protein remaining %≤ 100%) | B ("B" is defined as 80%< substrate protein remaining %≤ 100%) | A ("A" is defined as 0% ≤ substrate protein remaining % ≤ 80%) | 100 to 300 nM | 300 to 500 nM | 300 to 500 nM | – | – | – | – | – | – | – | –
– | – | O=C1CCN(N2Cc3cc(CN4CC=C(c5cccs5)CC4)ccc3C2=O)C(=O)N1 [GT-04868, 1-(1-oxo-5-((4-(thiophen-2-yl)-3,6-dihydropyridin-1(2H)-yl)methyl)isoindolin-2-yl)dihydropyrimidine-2,4(1H,3H)-dione] | A ("A" is defined as 0% ≤ substrate protein remaining % ≤ 80%) | A ("A" is defined as 0% ≤ substrate protein remaining % ≤ 80%) | B ("B" is defined as 80%< substrate protein remaining %≤ 100%) | B ("B" is defined as 80%< substrate protein remaining %≤ 100%) | A ("A" is defined as 0% ≤ substrate protein remaining % ≤ 80%) | A ("A" is defined as 0% ≤ substrate protein remaining % ≤ 80%) | 100 to 300 nM | 300 to 500 nM | 300 to 500 nM | – | – | – | – | – | – | – | –
– | – | Cc1ccc(C2=CCN(Cc3ccc4c(c3)CN(N3CCC(=O)NC3=O)C4=O)CC2)s1 [GT-04869, 1-(5-((4-(5-methylthiophen-2-yl)-3,6-dihydropyridin-1(2H)-yl)methyl)-1-oxoisoindolin-2-yl)dihydropyrimidine-2,4(1H,3H)-dione] | A ("A" is defined as 0% ≤ substrate protein remaining % ≤ 80%) | A ("A" is defined as 0% ≤ substrate protein remaining % ≤ 80%) | A ("A" is defined as 0% ≤ substrate protein remaining % ≤ 80%) | A ("A" is defined as 0% ≤ substrate protein remaining % ≤ 80%) | B ("B" is defined as 80%< substrate protein remaining %≤ 100%) | A ("A" is defined as 0% ≤ substrate protein remaining % ≤ 80%) | 50 to 100 nM | 300 to 500 nM | 300 to 500 nM | – | – | – | – | – | – | – | –
– | – | Cc1ccsc1C1=CCN(Cc2ccc3c(c2)CN(N2CCC(=O)NC2=O)C3=O)CC1 [GT-04870, 1-(5-((4-(3-methylthiophen-2-yl)-3,6-dihydropyridin-1(2H)-yl)methyl)-1-oxoisoindolin-2-yl)dihydropyrimidine-2,4(1H,3H)-dione] | A ("A" is defined as 0% ≤ substrate protein remaining % ≤ 80%) | A ("A" is defined as 0% ≤ substrate protein remaining % ≤ 80%) | A ("A" is defined as 0% ≤ substrate protein remaining % ≤ 80%) | A ("A" is defined as 0% ≤ substrate protein remaining % ≤ 80%) | B ("B" is defined as 80%< substrate protein remaining %≤ 100%) | A ("A" is defined as 0% ≤ substrate protein remaining % ≤ 80%) | 50 to 100 nM | 100 to 300 nM | 100 to 300 nM | – | – | – | – | – | – | – | –
– | – | O=C1CCN(N2Cc3cc(CN4CC=C(c5ccsc5)CC4)ccc3C2=O)C(=O)N1 [GT-04871, 1-(1-oxo-5-((4-(thiophen-3-yl)-3,6-dihydropyridin-1(2H)-yl)methyl)isoindolin-2-yl)dihydropyrimidine-2,4(1H,3H)-dione] | A ("A" is defined as 0% ≤ substrate protein remaining % ≤ 80%) | A ("A" is defined as 0% ≤ substrate protein remaining % ≤ 80%) | B ("B" is defined as 80%< substrate protein remaining %≤ 100%) | B ("B" is defined as 80%< substrate protein remaining %≤ 100%) | B ("B" is defined as 80%< substrate protein remaining %≤ 100%) | A ("A" is defined as 0% ≤ substrate protein remaining % ≤ 80%) | 100 to 300 nM | 300 to 500 nM | 300 to 500 nM | – | – | – | – | – | – | – | –
– | – | O=C1CCN(N2Cc3cc(CN4CCN(C(c5ccccc5)c5ccccn5)CC4)ccc3C2=O)C(=O)N1 (centres unmarked) [GT-04890, 1-(1-oxo-5-((4-(phenyl(pyridin-2-yl)methyl)piperazin-1-yl)methyl)isoindolin-2-yl)dihydropyrimidine-2,4(1H,3H)-dione] | B ("B" is defined as 80%< substrate protein remaining %≤ 100%) | A ("A" is defined as 0% ≤ substrate protein remaining % ≤ 80%) | A ("A" is defined as 0% ≤ substrate protein remaining % ≤ 80%) | B ("B" is defined as 80%< substrate protein remaining %≤ 100%) | B ("B" is defined as 80%< substrate protein remaining %≤ 100%) | A ("A" is defined as 0% ≤ substrate protein remaining % ≤ 80%) | 100 to 300 nM | 500 to 1000 nM | – | – | – | – | – | – | – | – | –
20 to 30% | 53 to 60% | O=C1CCN(N2Cc3cc(CN4CC=C(c5ncnc6sc(-c7ccccc7)cc56)CC4)ccc3C2=O)C(=O)N1 [GT-08173, 1-(1-oxo-5-((4-(6-phenylthieno[2,3-d]pyrimidin-4-yl)-3,6-dihydropyridin-1(2H)-yl)methyl)isoindolin-2-yl)dihydropyrimidine-2,4(1H,3H)-dione] | – | – | – | – | – | – | – | – | – | -5 to 0% | 80 to 100% | 5 to 10% | 40 to 60% | 10 to 18% | 80 to 100% | 10 to 15% | 60 to 80%
